From patent publication US8101647B2, “Spiro-oxindole compounds and their use as therapeutic agents” (Xenon Pharmaceuticals Inc., priority 2008, dated 2012)

Experiments:
CYP2C19 = CYP2C19 (Homo sapiens, UniProt P33261)
CYP2C9 = CYP2C9 (Homo sapiens, UniProt P11712)
sodium channel = assay: Guanidine influx assay; assay type: cell-based, human or rat; settings: known cell line that expresses a sodium channel; read-out: IC50 Activity Level
From the text: This example describes an in vitro assay for testing and profiling test agents against human or rat sodium channels stably expressed in cells of either an endogenous or recombinant origin. The assay is also useful for determining the IC50 of a sodium channel blocking compound. The assay is based on the guanidine flux assay described by Reddy, N. L., et al., J. Med. Chem. (1998), 41(17):3298-302.
The guanidine influx assay is a radiotracer flux assay used to determine ion flux activity of sodium channels in a high-throughput microplate-based format. The assay uses ^14C-guanidine hydrochloride in combination with various known sodium channel modulators, to assay the potency of test agents. Potency is determined by an IC50 calculation. Selectivity is determined by comparing potency of the compound for the channel of interest to its potency against other sodium channels (also called ‘selectivity profiling’).
Each of the test agents is assayed against cells that express the channels of interest. Voltage gated sodium channels are either TTX sensitive or insensitive. This property is useful when evaluating the activities of a channel of interest when it resides in a mixed population with other sodium channels. The following Table 1 summarizes cell lines useful in screening for a certain channel activity in the presence or absence of TTX.
It is also possible to employ recombinant cells expressing these sodium channels. Cloning and propagation of recombinant cells are known to those skilled in the art (see, for example, Klugbauer, N, et al., EMBO J. (1995), 14(6):1084-90; and Lossin, C., et al., Neuron (2002), 34, pp. 877-884).
Cells expressing the channel of interest are grown according to the supplier or in the case of a recombinant cell in the presence of selective growth media such as G418 (Gibco/Invitrogen). The cells are disassociated from the culture dishes with an enzymatic solution (1×) Trypsin/EDTA (Gibco/Invitrogen) and analyzed for density and viability using haemocytometer (Neubauer). Disassociated cells are washed and resuspended in their culture media then plated into Scintiplates (Beckman Coulter Inc.) (approximately 100,000 cells/well) and incubated at 37° C./5% CO2. for 20-24 hours. After an extensive wash with Low sodium HEPES-buffered saline solution (LNHBSS) (150 mM Choline Chloride, […] (Sigma), 1 mM Calcium Chloride, 5 mM Potassium Chloride, 1 mM Magnesium Chloride, 10 mM Glucose) agents diluted with LNHBSS are added to each well. (Varying concentrations of test agent may be used). The activation/radiolabel mixture contains aconitine (Sigma) to increase the percentage of time that the sodium channels are open, and ^14C-guanidine hydrochloride (ARC) to measure flux through the voltage-gated sodium channels.
After loading the cells with test agent and activation/radiolabel mixture, the Scintiplates are incubated at ambient temperature. Following the incubation, the Scintplates are extensively washed with LNHBSS supplemented with guanidine (Sigma). The Scintiplates are dried and then counted using a Wallac MicroBeta TriLux (Perkin-Elmer Life Sciences). The ability of the test agent to block sodium channel activity is determined by comparing the amount of ^14C-guanidine present inside the cells expressing the different sodium channels.
The IC50 value of a test agent for a specific sodium channel may be determined using the above general method. […] Typically the mid-point concentration of test agent is set at 1 μM, and sequential concentrations of half dilutions greater or smaller are applied (e.g. 0.5 μM; 5 μM and 0.25 μM; 10 μM and 0.125 μM; 20 μM etc.). The IC50 curve is calculated using the 4 Parameter Logistic Model or Sigmoidal Dose-Response Model formula (fit=(A+((B−A)/(1+((C/x)^D)))).
The fold selectivity, factor of selectivity or multiple of selectivity, is calculated by dividing the IC50 value of the test sodium channel by the reference sodium channel, for example, NaV1.5. […]

[1] = system: inactivated state of the channel of interest (sodium channel); assay: Electrophysiological assay (whole cell voltage clamp); assay type: cell-based; settings: affinity for the inactivated state of the channel
Experimental: Cells expressing the channel of interest are cultured in DMEM growth media (Gibco) with 0.5 mg/mL G418, +/−1% PSG, and 10% heat-inactivated fetal bovine serum at 37° C. and 5% CO2. For electrophysiological recordings, cells are plated on 10 mm dishes.
Whole cell recordings are examined by established methods of whole cell voltage clamp (Bean et al., op. cit.) using an Axopatch 200B amplifier and Clampex software (Axon Instruments, Union City, Calif.). All experiments are performed at ambient temperature. Electrodes are fire-polished to resistances of 2-4 Mohms Voltage errors and capacitance artifacts are minimized by series resistance compensation and capacitance compensation, respectively. Data are acquired at 40 kHz and filtered at 5 kHz. The external (bath) solution consists of: NaCl (140 mM), KCl (5 mM), CaCl2 (2 mM), MgCl2 (1 mM), HEPES (10 mM) at pH 7.4. The internal (pipette) solution consists of (in mM): NaCl (5), CaCl2 (0.1), MgCl2 (2), CsCl (10), CsF (120), HEPES (10), EGTA (10), at pH 7.2.
To estimate the steady-state affinity of compounds for the resting and inactivated state of the channel (Kr and Ki, respectively), 12.5 ms test pulses to depolarizing voltages from −60 to +90 m V from a holding potential of −120 m V is used to construct current-voltage relationships (I-V curves). A voltage near the peak of the IV-curve (−30 to 0 m V) is used as the test pulse throughout the remainder of the experiment. Steady-state inactivation (availability) curves are then constructed by measuring the current activated during a 8.75 ms test pulse following 1 second conditioning pulses to potentials ranging from −120 to −10 mV.
The steady-state voltage-dependence of binding of a compound to a sodium channel is determined by measuring the blockage of the ionic current at two holding potentials. Binding to rested-state channels is determined by using a holding potential of −120 mV, so that maximal availability is achieved. Binding to inactivated-state channels is evaluated at a holding potential such that only 10% of the channels are available to open. The membrane potential is held at this voltage for at least 10 seconds so that drug binding can equilibrate.
The apparent dissociation constant at each voltage is calculated with the equation:
[formula] where Kd is the dissociation constant (either Kr or Ki), and [Drug] is the concentration of the test compound.
The Example numbers provided in Table 3 correspond to the Examples herein: […]

CYP3A4 = molecular target: T1, CYP3A4 (Homo sapiens, UniProt P08684); assay: Cytochrome P450 (CYP450) inhibition assay, fluorescence-based; assay type: in vitro ADME; settings: recombinant CYP3A4 (P450 Baculosomes), probe Vivid substrate (fluorogenic)
T1 construct: purchased Invitrogen Corporation (Vivid CYP450 Screening Kit)
T1 sequence (P08684 whole entry): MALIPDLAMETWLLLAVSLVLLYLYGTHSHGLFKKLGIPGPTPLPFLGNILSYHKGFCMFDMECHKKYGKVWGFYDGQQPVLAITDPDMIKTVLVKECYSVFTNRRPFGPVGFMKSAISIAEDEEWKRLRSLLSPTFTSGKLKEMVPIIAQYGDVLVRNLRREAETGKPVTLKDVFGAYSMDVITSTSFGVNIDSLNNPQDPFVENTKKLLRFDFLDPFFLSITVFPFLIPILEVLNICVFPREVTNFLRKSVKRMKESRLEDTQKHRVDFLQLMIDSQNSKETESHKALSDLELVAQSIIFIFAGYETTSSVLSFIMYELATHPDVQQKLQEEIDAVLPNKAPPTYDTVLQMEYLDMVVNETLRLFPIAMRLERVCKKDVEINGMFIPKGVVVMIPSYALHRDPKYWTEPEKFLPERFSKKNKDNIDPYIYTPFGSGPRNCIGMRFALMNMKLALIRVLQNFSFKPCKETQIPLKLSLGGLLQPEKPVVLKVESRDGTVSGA

CHO-K1 (Nav1.4) = CHO-K1 (Nav1.4) (Cricetulus griseus, UniProt A0A9J7H6F9); assay type: cell-based, Chinese Hamster
Chain of CHO-K1 (Nav1.4) (A0A9J7H6F9 1-1930): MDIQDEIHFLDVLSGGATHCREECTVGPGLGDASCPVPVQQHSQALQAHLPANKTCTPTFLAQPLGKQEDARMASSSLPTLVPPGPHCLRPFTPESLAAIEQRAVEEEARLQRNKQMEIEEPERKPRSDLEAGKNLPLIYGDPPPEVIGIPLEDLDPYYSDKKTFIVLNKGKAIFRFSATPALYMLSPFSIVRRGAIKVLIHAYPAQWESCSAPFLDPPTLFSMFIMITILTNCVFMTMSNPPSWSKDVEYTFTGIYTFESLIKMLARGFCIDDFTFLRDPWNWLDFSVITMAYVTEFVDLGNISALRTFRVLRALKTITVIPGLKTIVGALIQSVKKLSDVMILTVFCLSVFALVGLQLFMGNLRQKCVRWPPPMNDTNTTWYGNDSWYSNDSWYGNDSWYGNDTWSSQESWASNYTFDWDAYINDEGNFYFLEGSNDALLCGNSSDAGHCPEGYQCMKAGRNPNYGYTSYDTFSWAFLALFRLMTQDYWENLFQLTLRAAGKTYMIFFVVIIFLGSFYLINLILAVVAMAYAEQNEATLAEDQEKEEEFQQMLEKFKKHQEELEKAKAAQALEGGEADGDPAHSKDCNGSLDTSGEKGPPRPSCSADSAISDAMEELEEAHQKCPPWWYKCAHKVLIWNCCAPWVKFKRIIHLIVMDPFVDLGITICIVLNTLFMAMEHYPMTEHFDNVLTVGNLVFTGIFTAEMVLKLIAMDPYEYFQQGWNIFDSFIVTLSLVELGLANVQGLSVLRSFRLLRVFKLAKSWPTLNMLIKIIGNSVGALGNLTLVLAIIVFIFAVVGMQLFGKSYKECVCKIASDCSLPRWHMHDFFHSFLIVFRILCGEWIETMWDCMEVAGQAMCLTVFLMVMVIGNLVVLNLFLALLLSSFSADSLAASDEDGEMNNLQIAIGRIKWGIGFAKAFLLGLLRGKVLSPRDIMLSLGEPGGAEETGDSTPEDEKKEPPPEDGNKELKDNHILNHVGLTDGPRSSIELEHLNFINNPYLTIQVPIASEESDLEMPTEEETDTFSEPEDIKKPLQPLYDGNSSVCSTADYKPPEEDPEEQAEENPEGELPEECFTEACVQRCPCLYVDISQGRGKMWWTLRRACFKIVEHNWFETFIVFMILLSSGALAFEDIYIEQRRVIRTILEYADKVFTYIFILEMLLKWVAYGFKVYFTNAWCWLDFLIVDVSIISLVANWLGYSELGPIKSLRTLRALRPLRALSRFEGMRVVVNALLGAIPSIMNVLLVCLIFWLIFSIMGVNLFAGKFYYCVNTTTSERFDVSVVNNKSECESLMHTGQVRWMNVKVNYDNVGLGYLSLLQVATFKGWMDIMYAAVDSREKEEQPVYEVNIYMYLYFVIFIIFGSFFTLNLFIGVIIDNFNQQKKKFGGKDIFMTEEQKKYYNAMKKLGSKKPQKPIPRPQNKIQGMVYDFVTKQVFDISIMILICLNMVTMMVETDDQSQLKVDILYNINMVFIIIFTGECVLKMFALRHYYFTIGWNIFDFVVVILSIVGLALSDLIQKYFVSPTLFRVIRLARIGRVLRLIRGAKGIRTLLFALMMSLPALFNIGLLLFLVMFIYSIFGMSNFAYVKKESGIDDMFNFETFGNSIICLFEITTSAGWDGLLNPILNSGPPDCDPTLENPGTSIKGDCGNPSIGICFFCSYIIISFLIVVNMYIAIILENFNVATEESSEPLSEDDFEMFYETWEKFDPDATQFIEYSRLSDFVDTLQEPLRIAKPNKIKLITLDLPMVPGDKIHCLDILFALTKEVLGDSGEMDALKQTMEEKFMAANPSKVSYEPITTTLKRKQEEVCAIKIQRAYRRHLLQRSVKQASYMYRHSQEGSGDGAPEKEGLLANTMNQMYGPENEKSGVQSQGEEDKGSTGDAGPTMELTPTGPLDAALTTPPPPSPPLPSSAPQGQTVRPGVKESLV

L6 (Nav1.4 and 1.5) = assay type: cell-based, rat
PC12 (Nav1.2) = PC12 (Nav1.2) (Rattus norvegicus, UniProt P04775)
SK-N-BE2C (Nav1.8) = SK-N-BE2C (Nav1.8) (Homo sapiens, UniProt Q9Y5Y9); assay type: cell-based
[2] = system: SH-SY5Y (Nav1.9 and Nav1.7); assay type: cell-based, Human

Chain of CYP2C19 (P33261 whole entry): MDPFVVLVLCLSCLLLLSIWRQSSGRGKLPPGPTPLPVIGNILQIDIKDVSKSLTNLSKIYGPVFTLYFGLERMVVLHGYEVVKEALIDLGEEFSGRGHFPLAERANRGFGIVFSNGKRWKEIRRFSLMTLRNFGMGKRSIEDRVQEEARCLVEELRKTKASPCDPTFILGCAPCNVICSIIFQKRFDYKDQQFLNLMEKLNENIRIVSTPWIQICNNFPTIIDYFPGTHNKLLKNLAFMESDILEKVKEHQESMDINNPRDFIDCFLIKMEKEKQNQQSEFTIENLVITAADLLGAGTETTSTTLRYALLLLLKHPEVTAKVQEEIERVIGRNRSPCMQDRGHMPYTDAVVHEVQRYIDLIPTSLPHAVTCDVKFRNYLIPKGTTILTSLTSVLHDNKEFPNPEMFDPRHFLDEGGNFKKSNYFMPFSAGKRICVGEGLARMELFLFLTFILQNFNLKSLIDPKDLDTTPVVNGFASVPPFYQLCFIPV
Chain of CYP2C9 (P11712 whole entry): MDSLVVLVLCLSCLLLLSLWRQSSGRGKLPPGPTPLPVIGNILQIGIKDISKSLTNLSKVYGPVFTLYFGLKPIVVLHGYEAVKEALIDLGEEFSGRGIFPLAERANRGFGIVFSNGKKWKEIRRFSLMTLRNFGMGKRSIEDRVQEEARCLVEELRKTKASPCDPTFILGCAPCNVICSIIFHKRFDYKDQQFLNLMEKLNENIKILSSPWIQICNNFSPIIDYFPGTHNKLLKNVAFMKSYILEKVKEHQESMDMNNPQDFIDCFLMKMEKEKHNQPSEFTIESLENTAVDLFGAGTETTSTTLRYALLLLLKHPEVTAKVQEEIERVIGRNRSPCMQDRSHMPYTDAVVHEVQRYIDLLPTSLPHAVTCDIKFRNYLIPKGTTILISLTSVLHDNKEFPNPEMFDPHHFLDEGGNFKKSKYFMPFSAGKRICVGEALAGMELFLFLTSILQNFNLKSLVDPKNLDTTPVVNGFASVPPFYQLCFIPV

Row | Compound | IC50 (sodium channel) [nM] | Ki [1] [nM] | inhibition at 10 µM (CYP3A4) [%] | melting point [°C] | other results
1 | CC(=O)N1CCN(c2ccc(OCC3COC(Cn4ccnc4)(c4ccc(Cl)cc4Cl)O3)cc2)CC1 (stereo not shown) [Ketoconazole] | – | – | – | – | % Inhibition in 10 μM assay (CYP2C19): 65 +/− 10%
2 | Nc1ccc(S(=O)(=O)Nc2ccnn2-c2ccccc2)cc1 [Sulfaphenazole] | – | – | – | – | % Inhibition in 10 μM assay (CYP2C9): 50 +/− 15%
3 | NC(=O)COc1ccc(CN2C(=O)C3(COc4cc5c(cc43)OCCO5)c3ccccc32)cc1 (stereo not shown) [Example 13.2, 2-{4-[(2′-oxo-2,3-dihydrospiro[furo[2,3-g][1,4]benzodioxine-8,3′-indol]-1′(2′H)-yl)methyl]phenoxy}acetamide] | 1 to 100 | > 300 | > 50 | 225 to 227 | –
4 | CN(C)CCOc1ccc(CN2C(=O)C3(COc4cc5c(cc43)OCCO5)c3ccccc32)cc1 (stereo not shown) [Example 13.4, 1′-{4-[2-(dimethylamino)ethoxy]benzyl}-2,3-dihydrospiro[furo[2,3-g][1,4]benzodioxine-8,3′-indol]-2′(1′H)-one] | 100 to 1000 | < 300 | > 50 | 77 to 79 | –
5 | O=C1N(Cc2ccc(OCCO)cc2)c2ccccc2C12COc1cc3c(cc12)OCCO3 (stereo not shown) [Example 15.3, 1′-[4-(2-hydroxyethoxy)benzyl]-2,3-dihydrospiro[furo[2,3-g][1,4]benzodioxine-8,3′-indol]-2′(1′H)-one] | – | > 300 | < 50 | 196 to 197 | –
6 | CCOC(=O)COc1cccc(CN2C(=O)C3(COc4cc5c(cc43)CCO5)c3ccccc32)c1 (stereo not shown) [Example 14, ethyl {3-[(2′-oxo-5,6-dihydrospiro[benzo[1,2-b:5,4-b′]difuran-3,3′-indol]-1′(2′H)-yl)methyl]phenoxy}acetate] | 100 to 1000 | > 300 | > 50 | 45 to 46 | –
7 | NC1=N[C@H](O)[C@H]2[C@H]3O[C@]4(O)O[C@@H]([C@@H](O)[C@@]2(N1)[C@@H]4O)[C@]3(O)CO [TTX, tetrodotoxin] | – | – | – | – | block of increase in [14C] guanidine influx (CHO-K1 (Nav1.4)): completely blocked using TTX.; block of increase in [14C] guanidine influx (L6 (Nav1.4 and 1.5)): partially blocked by TTX at 100 nM; block of increase in [14C] guanidine influx (PC12 (Nav1.2)): guanidine influx was completely; block of increase in [14C] guanidine influx (SK-N-BE2C (Nav1.8)): TTX partially blocked influx; block of increase in [14C] guanidine influx [2]: background was partially blocked
